Data: patent US12486271B2, “Solid forms of a toll-like receptor modulator” (GILEAD SCIENCES, INC., priority 2014, dated 2025)

What was measured:
[1] = Variable temperature XRD (VT XRD) experiment: form stability on cooling; assay type: physicochemical; settings: cooled to 25° C. after generation by heating
Description: X-ray Powder Diffraction (XRPD). The Rigaku Smart-Lab® X-ray diffraction system was configured for reflection BraggBrentano geometry using a line source X-ray beam. The x-ray source is a Cu Long Fine Focus tube that was operated at 40 kV and 44 mA. That source provides an incident beam profile at the sample that changes from a narrow line at high angles to a broad rectangle at low angles. Beam conditioning slits were used on the line X-ray source to ensure that the maximum beam size is less than 10 mm both along the line and normal to the line. The Bragg-Brentano geometry is a para-focusing geometry controlled by passive divergence and receiving slits with the sample itself acting as the focusing component for the optics. The inherent resolution of Bragg-Brentano geometry is governed in part by the diffractometer radius and the width of the receiving slit used. Typically, the Rigaku Smart-Lab is operated to give peak widths of 0.1°2θ or less. The axial divergence of the X-ray beam is controlled by 5.0-degree Soller slits in both the incident and diffracted beam paths. Powder samples were prepared in a low background Si holder using light manual pressure to keep the sample surfaces flat and level with the reference surface of the sample holder. The single-crystal, Si, low-background holder has a small circular recess (7 mm diameter and about 1 mm depth) that holds between 5 and 10 mg of powdered material. Each sample was analyzed from 2 to 40°2θ using a continuous scan of 3°2θ per minute with an effective step size of 0.02°2θ. Form III was generated at 138° C. from Form I in a variable temperature XRD (VT XRD) experiment. […] Form III is characterized by the X-ray powder diffraction pattern in FIG. 9, and the differential scanning calorimetry plot in FIG. 11 showing endotherms at about 181 and 271° C. (decomposition). Form IV was generated between 95 and 110° C. from Form II in a variable temperature XRD experiment. […] is characterized by the X-ray powder diffraction pattern in FIG. 13.

[2] = Competition slurry experiment of Form I and Form III in methanol; assay type: physicochemical; settings: 10 mg of each of Form I and Form III in methanol
HCV = settings: once daily 7-day treatment, HCV infected patients; cited from earlier work

With `CCCCOc1nc(N)c2c(n1)N(Cc1cccc(CN3CCCC3)c1)CC(=O)N2` [Form III, 4-amino-2-butoxy-8-(3-(pyrrolidin-1-ylmethyl)benzyl)-7,8-dihydropteridin-6(5H)-one] the “Solid form stability when cooled to 25° C. in variable temperature XRD” value (from here on “Solid form stability when cooled”) [1] was “stable when cooled to 25 °C and does not convert back to Form I”, the “Solid form stability when cooled” value ([1]; listed as Compound I Form III) was “remains as Form III” and the “Time for conversion of Form III back to Form I in competition slurry” value [2] was ≤ 2 weeks.

In the case of `CCCCOc1nc(N)c2c(n1)N(Cc1cccc(CN3CCCC3)c1)CC(=O)N2` [Form IV, 4-amino-2-butoxy-8-(3-(pyrrolidin-1-ylmethyl)benzyl)-7,8-dihydropteridin-6(5H)-one], the “Solid form stability when cooled” value [1] is reported as “converts back to Form II when cooled to 25 °C”.

In the case of `Nc1nc(=O)c2sc(=O)n([C@@H]3O[C@H](CO)[C@@H](O)[C@H]3O)c2[nH]1` [isatoribine], the Plasma virus concentrations (HCV) is given as “reduces plasma virus concentrations”.
